The record followed here is patent publication US20250271426A1, “REDUCTION OF BITTER TASTE OF ACTIVE PHARMACEUTICAL INGREDIENTS AND RELATED ASSAYS AND SCREENING METHODS” (Firmenich Incorporated, priority 2022, published 2025).

Common to all, as to test: FLIPR calcium assay, cells with promiscuous G protein transfected with bitter receptor cDNA
Common to all, as to format: cell-based
What all share (settings): responsive if cellular response of >10% over baseline, Fluo4-AM

For test [1], the target named is T1, T2R receptor SEQ ID NO: 4 (S4) (Homo sapiens, UniProt Q9NYV8).
T1 construct: expressed in transfected cells; host or cells: cells expressing a promiscuous G protein (e.g., G16g44)
T1 sequence (Q9NYV8 1-317): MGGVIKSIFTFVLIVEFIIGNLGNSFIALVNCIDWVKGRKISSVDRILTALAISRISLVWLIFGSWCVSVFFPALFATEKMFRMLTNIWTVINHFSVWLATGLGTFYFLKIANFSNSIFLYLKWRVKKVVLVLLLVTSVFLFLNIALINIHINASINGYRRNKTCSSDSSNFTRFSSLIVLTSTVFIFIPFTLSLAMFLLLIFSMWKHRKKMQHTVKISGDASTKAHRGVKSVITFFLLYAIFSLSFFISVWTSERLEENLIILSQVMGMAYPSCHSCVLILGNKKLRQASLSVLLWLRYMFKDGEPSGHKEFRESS
The procedure: (§1) Cells expressing a promiscuous G protein (e.g., G16g44) were transfected with vectors encoding 22 functional bitter receptor cDNAs, with one receptor per transfection. The cells were transfected directly in 384-well format high-density plates and incubated for 28 hours. Later, cells were loaded with the Ca-specific dye Fluo4-AM. After an incubation of 60 minutes, excess dye is washed off, and cells are stimulated with respective bitter agonists while simultaneously recording changes in intracellular fluorescence using a FLIPR instrument.
(§2) The above protocol was carried out using 94 different active pharmaceutical ingredients (APIs) that span a wide range of different APIs having a diversity of chemical structures. A particular T2R receptor was identified as being responsive to a particular API if it triggered a cellular response of >10% over baseline.

The target in test [2] is T2, T2R receptor SEQ ID NO: 3 (S3) (Homo sapiens, UniProt Q9NYW0, T156M).
T2 construct: expressed in transfected cells; host or cells: cells expressing a promiscuous G protein (e.g., G16g44)
T2 sequence (Q9NYW0 1-307 T156M): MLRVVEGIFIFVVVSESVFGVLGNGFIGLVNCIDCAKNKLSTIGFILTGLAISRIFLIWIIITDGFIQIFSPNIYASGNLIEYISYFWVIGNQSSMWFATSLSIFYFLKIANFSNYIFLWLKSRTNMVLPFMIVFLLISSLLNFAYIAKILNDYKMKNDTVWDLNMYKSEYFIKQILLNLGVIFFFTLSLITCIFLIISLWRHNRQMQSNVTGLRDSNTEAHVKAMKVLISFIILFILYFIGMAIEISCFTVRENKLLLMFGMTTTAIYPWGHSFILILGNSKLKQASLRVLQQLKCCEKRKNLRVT
The procedure:
as §1, §2

Test [3] addresses T3, T2R receptor SEQ ID NO: 1 (S1) (Homo sapiens, UniProt Q9NYW7).
T3 construct: expressed in transfected cells; host or cells: cells expressing a promiscuous G protein (e.g., G16g44)
T3 sequence (Q9NYW7 1-299): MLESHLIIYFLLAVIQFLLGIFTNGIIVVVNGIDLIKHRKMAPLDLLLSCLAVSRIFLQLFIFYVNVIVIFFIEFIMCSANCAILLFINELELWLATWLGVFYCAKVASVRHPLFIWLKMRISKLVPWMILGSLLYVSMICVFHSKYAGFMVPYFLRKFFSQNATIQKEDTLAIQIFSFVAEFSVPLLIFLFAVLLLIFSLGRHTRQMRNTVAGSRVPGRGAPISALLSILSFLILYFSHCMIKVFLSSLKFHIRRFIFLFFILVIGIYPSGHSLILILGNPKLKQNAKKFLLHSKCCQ
The procedure: as §1, §2

Test [4] has as its target T4, T2R receptor SEQ ID NO: 6 (S6) (Homo sapiens, UniProt P59540).
T4 construct: expressed in transfected cells; host or cells: cells expressing a promiscuous G protein (e.g., G16g44)
T4 sequence (P59540 1-309): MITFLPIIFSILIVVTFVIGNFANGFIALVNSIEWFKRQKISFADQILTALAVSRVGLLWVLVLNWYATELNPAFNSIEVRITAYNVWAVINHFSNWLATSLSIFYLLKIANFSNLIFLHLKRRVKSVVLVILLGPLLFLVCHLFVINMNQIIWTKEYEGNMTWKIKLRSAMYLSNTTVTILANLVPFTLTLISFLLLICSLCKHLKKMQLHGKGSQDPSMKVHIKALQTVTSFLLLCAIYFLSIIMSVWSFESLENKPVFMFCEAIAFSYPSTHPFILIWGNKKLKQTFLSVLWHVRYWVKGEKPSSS
The procedure:
as §1, §2

The structures appear in SMILES notation.

As to `O=C(O)c1ccccc1Nc1cccc(C(F)(F)F)c1` [Flufenamic Acid], the “S4 positive response of T2R receptor to API” value (“S4 positive response” below) in test [1] is “+ (a “+” to indicate whether a particular T2R receptor showed a positive response to a particular API)”.
For the molecule `CCN(CC)CC(=O)Nc1c(C)cccc1C` [Lidocaine], the “S3 positive response of T2R receptor to API” value (from here on “S3 positive response”) in test [2] is listed as “+ (a “+” to indicate whether a particular T2R receptor showed a positive response to a particular API)”. The “S4 positive response” value in test [1] is “+ (a “+” to indicate whether a particular T2R receptor showed a positive response to a particular API)”.
`Cc1cc(NS(=O)(=O)c2ccc(N)cc2)no1` [Sulfamethoxazole]: the “S1 positive response of T2R receptor to API” value in test [3] is given as “+ (a “+” to indicate whether a particular T2R receptor showed a positive response to a particular API)”.
In the case of `NS(=O)(=O)c1cc2c(cc1Cl)NCNS2(=O)=O` [Hydrochlorothiazide], the “S3 positive response” value in test [2] was “+ (a “+” to indicate whether a particular T2R receptor showed a positive response to a particular API)”. Moreover, the “S6 positive response of T2R receptor to API” value (shortened to “S6 positive response”) in test [4] is “+ (a “+” to indicate whether a particular T2R receptor showed a positive response to a particular API)”.
As for `O=C(O)c1cccnc1Nc1cccc(C(F)(F)F)c1` [Niflumic Acid], in test [1], the “S4 positive response” value is reported as “+ (a “+” to indicate whether a particular T2R receptor showed a positive response to a particular API)”.
The same measure, in the same setting: with `Cc1cccc(Nc2ccccc2C(=O)O)c1C` [Mefenamic Acid] the entry was “+ (a “+” to indicate whether a particular T2R receptor showed a positive response to a particular API)”.
As for `CCN1CCN(Cc2ccc(Nc3ncc(F)c(-c4cc(F)c5nc(C)n(C(C)C)c5c4)n3)nc2)CC1` [Abamaciclib], in test [4], the “S6 positive response” value was “+ (a “+” to indicate whether a particular T2R receptor showed a positive response to a particular API)”.
In the case of `COc1ccc(Cc2nccc3cc(OC)c(OC)cc23)cc1OC` [Papaverine], the “S3 positive response” value in test [2] is recorded as “+ (a “+” to indicate whether a particular T2R receptor showed a positive response to a particular API)”. For the same molecule, the “S4 positive response” value in test [1] is “+ (a “+” to indicate whether a particular T2R receptor showed a positive response to a particular API)”.
Turning to `Clc1ccc(COC(Cn2ccnc2)c2ccc(Cl)cc2Cl)c(Cl)c1` (stereo not shown) [Micronazole], the “S4 positive response” value in test [1] is “+ (a “+” to indicate whether a particular T2R receptor showed a positive response to a particular API)”.
Still for that read-out and setting: with `C=CCC1(C(C)CCC)C(=O)NC(=O)NC1=O` (stereo not shown) [Secobarbital Sodium] the entry was “+ (a “+” to indicate whether a particular T2R receptor showed a positive response to a particular API)”; with `CCC1=C(C)CN(C(=O)NCCc2ccc(S(=O)(=O)NC(=O)N[C@H]3CC[C@H](C)CC3)cc2)C1=O` [Glimepiride], “+ (a “+” to indicate whether a particular T2R receptor showed a positive response to a particular API)”.
Turning to `O=C(CCCN1CCC(O)(c2ccc(Cl)cc2)CC1)c1ccc(F)cc1` [Haloperidol], in test [2], the “S3 positive response” value is “+ (a “+” to indicate whether a particular T2R receptor showed a positive response to a particular API)”. In addition, in test [1], the “S4 positive response” value is “+ (a “+” to indicate whether a particular T2R receptor showed a positive response to a particular API)”.
`CCn1cc(C(=O)O)c(=O)c2cc(F)c(N3CCNCC3)nc21` [Enoxacin]: in test [4], the “S6 positive response” value is “+ (a “+” to indicate whether a particular T2R receptor showed a positive response to a particular API)”.
`CN1CCC(C(=O)c2cccc(NC(=O)c3c(F)cc(F)cc3F)n2)CC1` [Lasmitidan]: in test [2], the “S3 positive response” value is given as “+ (a “+” to indicate whether a particular T2R receptor showed a positive response to a particular API)”. Moreover, the “S6 positive response” value in test [4] is given as “+ (a “+” to indicate whether a particular T2R receptor showed a positive response to a particular API)”.
Regarding `Nc1ccc(S(=O)(=O)c2ccc(N)cc2)cc1` [Dapsone], in test [2], the “S3 positive response” value is listed as “+ (a “+” to indicate whether a particular T2R receptor showed a positive response to a particular API)”.
With `COc1ccc(C(CN(C)C)C2(O)CCCCC2)cc1` (stereo not shown) [Venlafaxine], the “S3 positive response” value in test [2] is listed as “+ (a “+” to indicate whether a particular T2R receptor showed a positive response to a particular API)”. Further, in test [4], the “S6 positive response” value was “+ (a “+” to indicate whether a particular T2R receptor showed a positive response to a particular API)”.
In the case of `CCCC(C)(COC(N)=O)COC(=O)NC(C)C` (stereo not shown) [Carisoprodol], in test [1], the “S4 positive response” value was “+ (a “+” to indicate whether a particular T2R receptor showed a positive response to a particular API)”.
Consider `C[C@]12CCC(=O)C=C1CC[C@@H]1[C@@H]2[C@@H](O)C[C@@]2(C)[C@H]1CC[C@]2(O)C(=O)CO` [Hydrocortisone], for which the “S6 positive response” value in test [4] is reported as “+ (a “+” to indicate whether a particular T2R receptor showed a positive response to a particular API)”.
Regarding `CN1CCCC(n2nc(Cc3ccc(Cl)cc3)c3ccccc3c2=O)CC1` (stereo not shown) [Azelastine], the “S3 positive response” value in test [2] is “+ (a “+” to indicate whether a particular T2R receptor showed a positive response to a particular API)”. The “S6 positive response” value in test [4] is “+ (a “+” to indicate whether a particular T2R receptor showed a positive response to a particular API)”.
Take `Cn1c(=O)c2c(ncn2C)n(C)c1=O` [Caffeine]: in test [2], the “S3 positive response” value is “+ (a “+” to indicate whether a particular T2R receptor showed a positive response to a particular API)”. In addition, the “S4 positive response” value in test [1] was “+ (a “+” to indicate whether a particular T2R receptor showed a positive response to a particular API)”. Also, the “S6 positive response” value in test [4] is “+ (a “+” to indicate whether a particular T2R receptor showed a positive response to a particular API)”.
For `Cc1cccn2c(=O)c(-c3nnn[nH]3)cnc12` [Pemirolast], the “S4 positive response” value in test [1] is listed as “+ (a “+” to indicate whether a particular T2R receptor showed a positive response to a particular API)”.
On to `O=C(O)c1cn(C2CC2)c2cc(N3CCNCC3)c(F)cc2c1=O` [Ciprofloxacin], for which the “S6 positive response” value in test [4] is listed as “+ (a “+” to indicate whether a particular T2R receptor showed a positive response to a particular API)”.
Consider `c1ccc(CC2=NCCN2)cc1` [Tolazoline], for which the “S3 positive response” value in test [2] is listed as “+ (a “+” to indicate whether a particular T2R receptor showed a positive response to a particular API)”. In addition, the “S6 positive response” value in test [4] is listed as “+ (a “+” to indicate whether a particular T2R receptor showed a positive response to a particular API)”.
As to `Cn1cnc([N+](=O)[O-])c1Sc1ncnc2nc[nH]c12` [Azathioprine], the “S3 positive response” value in test [2] was “+ (a “+” to indicate whether a particular T2R receptor showed a positive response to a particular API)”. Further, the “S6 positive response” value in test [4] is on record as “+ (a “+” to indicate whether a particular T2R receptor showed a positive response to a particular API)”.
`O=C(O)Cc1ccccc1Nc1c(Cl)cccc1Cl` [Diclofenac]: in test [1], the “S4 positive response” value is on record as “+ (a “+” to indicate whether a particular T2R receptor showed a positive response to a particular API)”.
On to `COc1ccc(-n2nc(C(N)=O)c3c2C(=O)N(c2ccc(N4CCCCC4=O)cc2)CC3)cc1` [Apixaban], for which the “S3 positive response” value in test [2] was “+ (a “+” to indicate whether a particular T2R receptor showed a positive response to a particular API)”.
